{"source": "patent US4338331A", "about": "“Isoindoline derivative and a therapeutic composition thereof” (priority 1979, dated 1982)", "format_in_all_cases": "in vivo, Wistar rat", "key": {"[1]": {"test_system": "female Wistar rats", "assay": "Diuretic and saluretic activity: excretion of an aqueous saline load (TABLE 1)", "details": "5 mg/kg oral", "experimental": "(§1) Both the CM/1 and the Indapamide were administered orally after being suitably dissolved in the following solvent:\n(§2) The controls were treated with an equal volume of solvent. The experiments were carried out on animals which had regularly fasted for at least 12 hours, but had free access to water.\n(§3) The sodium and potassium in the urine were determined by a photometric method.\nThe effect on the excretion of an aqueous saline load was first checked. 18 female Wistar rats were used divided into three groups, one of 8 and two of 5, and these were treated in the following manner:\nGROUP A: CONTROLS 1 ml of solvent made up to 50 ml with 0.9% sodium chloride solution, administered by gastric probe, per kg of body weight (=50 ml/kg in terms of volume);\nGROUP B: INDAPAMIDE 5 mg/kg in 1 ml/kg of solvent made up to 50 ml/kg with sodium chloride solution, administered by gastric probe;\nGROUP C: CM/1,5 mg/kg using the same method as for the Indapamide.\nThe rats were placed immediately in individual metabolic cages for collecting the urine during the three hours subsequent to the load. The quantity of urine excreted is given as a percentage of the quantity administered. The sodium and potassium are expressed in mEq/3h.\nValues of P less than 0.05 have been considered significant."}, "[2]": {"test_system": "male rats", "assay": "Diuretic and saluretic activity: excretion of a load of distilled water (TABLE 2)", "details": "5 mg/kg oral + aqueous load", "experimental": "as §1, §2, §3\nThe rats were then immediately placed in individual metabolic cages. The urine was collected over 4 hours. The quantity has been expressed in the usual manner as a percentage of the volume administered.\nSodium and potassium were also analysed, and these have been expressed as mEq/4h.\nAfter two days, in the preceding manner, the same rats were treated with Indapamide, and after a further two days with the product CM/1. In the interval between one test and the other, the rats were housed and fed in the normal manner. The dose used for both compounds was the same as previously, i.e. 5 mg/kg."}, "[3]": {"test_system": "female Wistar rats", "assay": "Effect on spontaneous diuresis (TABLE 3)", "details": "5 mg/kg oral; for Excreted sodium/potassium ratio: 12 h; for Potassium excretion / Sodium excretion: spontaneous diuresis", "experimental": "These investigations were carried out on Wistar rats of both sexes, having a body weight which is specified in each case in the relative tables, which compare the results with Indapamide. Both the CM/1 and the Indapamide were administered orally after being suitably dissolved in the following solvent:\nas §2, §3\nFinally, the effect on the new product of spontaneous diuresis was determined.\nThese investigations were carried out on 15 female Wistar rats having a body weight varying from 230 to 260 g, and divided at random into three groups of 5. The animals were kept in individual metabolic cages overnight for a period of 12 hours in order to collect the urine spontaneously excreted. One group was treated as usual with 1 ml/kg of solvent by means of a gastric probe, and the other two were treated respectively with 5 mg/kg of Indapamide and 5 mg/kg of CM/1. The sodium and potassium were analysed as usual in the urine collected."}, "[4]": {"details": "saline load, mean ± standard error, n = 5"}}, "note": "Where “and” joins values, the source holds several entries; their conditions need not be identical. Equal entries are not always repeated.", "data": [{"smiles": "CC1Cc2ccccc2N1NC(=O)c1ccc(Cl)c(S(N)(=O)=O)c1", "note": "(stereo not drawn) [Indapamide, N-(3-sulphamyl-4-chlorobenzamido)-2-methylindoline, reference compound]", "values": [{"measurement": "Urine excretion of load in percent of quantity administered (cumulative excretion), 1 hour", "setting": "[1]; individual rats", "result": "16.7% and 12.5% and 8.7% and 6.7%"}, {"measurement": "Urine excretion of load in percent of quantity administered (cumulative excretion), 2 hours", "setting": "[1]; individual rats", "result": "50.0% and 37.5% and 26.1% and 30.8% and 52.2%"}, {"measurement": "Urine excretion of load in percent of quantity administered (cumulative excretion), 3 hours", "setting": "[1]; individual rats", "result": "83.3% and 81.2% and 65.2% and 69.2% and 100.0%"}, {"measurement": "Urine excretion of load in percent of quantity administered (cumulative excretion), 1 hour", "setting": "[1]; mean ± standard error, n = 5", "result": "10.66 ± 1.77", "unit": "%"}, {"measurement": "Urine excretion of load in percent of quantity administered (cumulative excretion), 2 hours", "setting": "[1]; mean ± standard error, n = 5", "result": "39.32 ± 5.15", "unit": "%"}, {"measurement": "diuretic and saluretic effect", "setting": "[1]; relative to the controls", "result": "significant diuretic and saluretic effect relative to the controls"}, {"measurement": "ratio of the sodium to the potassium excreted during the 3 hours", "setting": "[1]; saline load", "result": 4.48}, {"measurement": "Potassium excretion", "setting": "[1]; saline load, individual rats", "result": "0.36 mEq/3h and 0.38 mEq/3h and 0.28 mEq/3h and 0.31 mEq/3h and 0.33 mEq/3h"}, {"measurement": "Sodium excretion", "setting": "[1]; saline load, individual rats", "result": "1.50 mEg/3h and 1.45 mEg/3h and 1.33 mEg/3h and 1.61 mEg/3h and 1.55 mEg/3h"}, {"measurement": "Potassium excretion", "setting": "[1]; [4]", "result": "0.332 ± 0.0177", "unit": "mEq/3h"}, {"measurement": "Sodium excretion", "setting": "[1]; [4]", "result": "1.488 ± 0.047", "unit": "mEg/3h"}, {"measurement": "excreted sodium and potassium", "setting": "[1]; versus controls", "result": "significantly higher than the controls"}, {"measurement": "diuretic and saluretic action", "setting": "[2]", "result": "significant diuretic and saluretic action"}, {"measurement": "RATIO Na/K (sodium to potassium excreted)", "setting": "[2]; 4 h, average", "result": 1.6764}, {"measurement": "Cumulative percent excretion at 1 hour from load", "setting": "[2]; individual rats", "result": "25.8% and 35.7% and 0.0% and 27.6% and 51.6%"}, {"measurement": "Cumulative percent excretion at 2 hours from load", "setting": "[2]; individual rats", "result": "83.9% and 92.8% and 42.9% and 82.8% and 101.7%"}, {"measurement": "Cumulative percent excretion at 3 hours from load", "setting": "[2]; individual rats", "result": "116.1% and 107.2% and 85.8% and 110.4% and 121.1%"}, {"measurement": "Cumulative percent excretion at 4 hours from load", "setting": "[2]; individual rats", "result": "138.7% and 107.2% and 114.4% and 110.4% and 140.5%"}, {"measurement": "Potassium excretion", "setting": "[2]; individual rats", "result": "0.00998 mEq/4h and 0.00543 mEq/4h and 0.00814 mEq/4h and 0.00692 mEq/4h and 0.01579 mEq/4h"}, {"measurement": "Sodium excretion", "setting": "[2]; individual rats", "result": "0.01808 mEq/4h and 0.00771 mEq/4h and 0.01403 mEq/4h and 0.01077 mEq/4h and 0.02694 mEq/4h"}, {"measurement": "Cumulative percent excretion at 1 hour from load", "setting": "[2]; mean of 5 rats", "result": 28.14, "unit": "%"}, {"measurement": "Cumulative percent excretion at 2 hours from load", "setting": "[2]; mean of 5 rats", "result": 80.82, "unit": "%"}, {"measurement": "Cumulative percent excretion at 3 hours from load", "setting": "[2]; mean of 5 rats", "result": 108.12, "unit": "%"}, {"measurement": "Cumulative percent excretion at 4 hours from load", "setting": "[2]; mean of 5 rats", "result": "122.24 ± 4.47", "unit": "%"}, {"measurement": "Potassium excretion", "setting": "[2]; mean of 5 rats", "result": 0.009252, "unit": "mEq/4h"}, {"measurement": "Sodium excretion", "setting": "[2]; mean of 5 rats", "result": 0.01551, "unit": "mEq/4h"}, {"measurement": "diuretic action", "setting": "[3]", "result": "marked diuretic action"}, {"measurement": "sodium and potassium excretion", "setting": "[3]", "result": "increased"}, {"measurement": "Excreted sodium/potassium ratio", "setting": "[3]; individual rats", "result": "1.170 and 1.417 and 1.803 and 1.346 and 1.555"}, {"measurement": "Excreted sodium/potassium ratio", "setting": "[3]; mean ± standard error, n = 5", "result": "1.4582 ± 0.106"}, {"measurement": "ml of urine collected in 12 hours", "setting": "[3]; individual rats", "result": "11.5 mL and 13.7 mL and 18.6 mL and 14.5 mL and 15.5 mL"}, {"measurement": "ml of urine collected in 12 hours", "setting": "[3]; mean ± standard error, n = 5", "result": "14.76 ± 1.16", "unit": "mL"}, {"measurement": "Potassium excretion", "setting": "[3]; individual rats", "result": "4.560 mEq/12h and 3.356 mEq/12h and 3.760 mEq/12h and 5.776 mEq/12h and 4.352 mEq/12h"}, {"measurement": "Sodium excretion", "setting": "[3]; individual rats", "result": "5.335 mEq/12h and 4.756 mEq/12h and 6.780 mEq/12h and 7.775 mEq/12h and 6.767 mEq/12h"}, {"measurement": "Potassium excretion", "setting": "[3]; mean ± standard error, n = 5", "result": "4.3608 ± 0.413", "unit": "mEq/12h"}, {"measurement": "Sodium excretion", "setting": "[3]; mean ± standard error, n = 5", "result": "6.2826 ± 0.544", "unit": "mEq/12h"}]}]}
